Test results taken from article PMC9961652 (International Journal of Molecular Sciences, 2023).
Like-named read-outs stand apart in the source and are kept apart here.

Legend:
washed human platelets = test: Collagen-induced platelet aggregation, light transmission aggregometry (Born method); assay type: cell-based; conditions: for activity at 20 µM / IC50: Platelet; for activity at 20 µM: compound 20 µM, means ± SDs of three experiments, 100% = agonist alone; for IC50: Homo sapiens; for activity in collagen-induced platelet aggregation (SAR statement): relative to the quinoline analogs
Description: Light transmission aggregometry, i.e., the Born method, was used to determine in vitro antiplatelet aggregation activity using collagen as the agonist for platelet aggregation. Collagen was selected as the agonist, since it is the most thrombogenic component of the subendothelial layer. Collagen also serves as a substrate for platelet adhesion and as an inducer of platelet activation.
All experiments using human blood from healthy volunteers were performed according to the protocols approved by the Institutional Review Board at Cincinnati Children’s Hospital Medical Center, Cincinnati, Ohio. Each volunteer was required to sign an informed consent form approved by the IRB. Procedures for drawing human blood, isolating platelet-rich plasma (PRP), and preparing washed platelet suspensions were the same as those previously reported. […] PRP was obtained by means of the centrifugation of blood at 1400 rpm for 15 min at room temperature. PRP was centrifuged at 4000 rpm for 10 min at room temperature, and the platelet pellet was resuspended in HEPES Tyrode’s solution (pH 7.4) without calcium. Platelets were counted using Hemavet 950FS (Drew Scientific, Oxford, CT, USA), and the count was adjusted to 2.5 × 10^8/mL for aggregation studies.
The in vitro antiplatelet activity of the compounds was assayed on washed human platelets using light transmission aggregometry. Platelet aggregation was performed using a 4-channel Lumi-aggregometer (Chronolog, PA, USA) at 37 °C and stirring speed of 900 rpm. A volume of 250 µL of washed human platelets (2.5 × 10^8/mL) was pre-warmed to 37 °C along with the compounds or DMSO (0.1%) for 2 min before the addition of agonists such as collagen, AA, U46619 (a stable synthetic analog of thromboxane A2), ADP, and thrombin. For ATP secretion, platelets were pre-incubated with a luciferin/luciferase kit (Chrono-lume®) for 30 s at 37 °C before the addition of the agonist. The reactions were allowed to proceed for at least 4 min, and the results of platelet aggregation and ATP secretion were determined using Aggrolink software. Platelet aggregation was expressed as the maximum change in the light transmission, where the 100% value corresponded to treatment with the agonist alone. Compounds were evaluated in triplicate at nine compound concentrations ranging from 50 µM to 1 µM.

RhoA-LARG interaction = biological target: T1, RhoA-LARG interaction (Homo sapiens, UniProt P61586); test: In vitro complex-formation assay of RhoA with LARG DH-PH domain; assay type: binding; conditions: 20 µM; pull-down assay conditions, 4 °C, 1 h
T1 construct: 100 ng of purified full-length RhoA
T1 sequence (P61586 whole entry, the tested form may be a part): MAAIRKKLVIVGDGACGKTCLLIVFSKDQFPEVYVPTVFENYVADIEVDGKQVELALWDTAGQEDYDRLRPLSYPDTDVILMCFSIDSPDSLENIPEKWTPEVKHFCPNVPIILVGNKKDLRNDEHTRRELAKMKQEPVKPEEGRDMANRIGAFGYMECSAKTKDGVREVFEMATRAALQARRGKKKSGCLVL
Description: (A) A complex-formation assay tested the inhibitory effects of 20 µM UC-177618 and UC-177619 on RhoA interaction with the LARG DH-PH domain. […] After incubating the compound-RhoA-LARG mixture at 4 °C for 1 h, the beads associated with RhoA were detected with anti-RhoA Western blotting. (B,C) Top view of the predicted structural contacts of UC-177618 and UC-177619 in the binding pocket around the Trp58 residue of RhoA.
(A) A complex-formation assay tested the inhibitory effects of R-G04 and S-G04 on RhoA interaction with the LARG DH-PH domain. MBP-(His)6-tagged LARG (100 ng) was immobilized on Amylose beads. Binding buffer containing full-length RhoA (100 ng) was pre-incubated with different concentrations of R-G04 (25 µM or 50 µM), and S-G04 (5 µM or 10 µM) was added to the beads. After incubating the compound-RhoA-LARG mixture at 4 °C for 1 h, the beads associated with RhoA were detected with anti-RhoA Western blotting. (B) Top view of the predicted structural contacts of R-G04 and S-G04 in the binding pocket around the Trp58 residue of RhoA.
In total, 100 ng of purified MBP (Maltose-binding protein)-(His)6-tagged LARG DH-PH was immobilized on 20 µL of suspended amylose beads (No. E8021S; New England Biolabs Inc., Ipswich, MA, USA) by incubating them in an orbital shaker at 4 °C for 30 min in binding buffer (20 mM Tris·HCl (pH 7.6), 100 mM NaCl, 0.01% Triton X-100, 5mM EDTA, and 5 mM MgCl2). The compounds were added to the binding buffer containing 100 ng of purified full-length RhoA and pre-incubated at 4 °C for 30 min under constant agitation. The Amylose beads bound to LARG were washed thrice with binding buffer to get rid of unbound LARG, and the pre-incubated compound-RhoA mixture was added to the beads. This LARG-compound-RhoA mixture was incubated in the orbital shaker at 4 °C for 1 h. The beads were washed three times, and the amount of RhoA protein co-precipitated with the MBP-fusion-bound beads was detected with anti-RhoA Western blotting.

RhoA = test: RhoA-GTP formation, GST-Rhotekin effector pull-down assay in collagen-stimulated platelets; assay type: cell-based, human; conditions: 20 µM, 2 min pre-incubation; collagen 1 µg/mL for 4 min
Description: Next, the ability of the six compounds to suppress RhoA activity in platelets was assessed by subjecting them to a GST (Glutathione-S-transferase)-Rhotekin effector pull-down assay. The compounds were incubated with washed human platelets for 2 min before being stimulated with 1 µg/mL collagen. The analogs inhibited the activation of RhoA at the 20 µM concentration (Figure 2A,B). […] After confirming that these analogs could prevent RhoA activation and the phosphorylation of the MLC, their ability to disrupt complex-formation between RhoA and LARG was tested. […] These findings indicate that the active analogs inhibit RhoA activation by disrupting the binding between RhoA and its GEF.
(A,B) Washed human platelets were incubated with collagen (1 µg/mL) for 4 min, and the levels of RhoA-GTP formation were quantified with a GST-Rhotekin effector pull-down assay. The platelets were pre-incubated with 20 µM UC-177618, UC-177619, UC-177628, UC-177629, […], or […] for 2 min before being stimulated with collagen. The addition of ice-cold lysis buffer terminated the reaction. […] Relative amounts of the GTP-bound form of RhoA were quantified with densitometry measurements of total RhoA (T-RhoA) and normalized to untreated platelets. (C,D) The addition of 20 µM of active Rhosin-related compounds to washed human platelets 2 min before stimulation with collagen blocked the phosphorylation of the myosin light chain (p-MLC). The reactions were terminated after 4 min by adding 4x Laemmli sample buffer. The samples were processed for Western blotting and probed for MLC and p-MLC, and phosphorylation was quantified by measuring the densitometry of total MLC (T-MLC). The differences between DMSO- and Rhosin-related compounds were analyzed with t-test, and the results are shown as means ± SDs of three independent experiments. (* p < 0.05, ** p < 0.01, *** p < 0.001, and **** p < 0.0001).
The relative levels of RhoA-GTP in washed human platelets were quantified with effector domains GST-Rhotekin pull-down assays as previously reported. A volume of 250 µL of washed human platelets (2.5 × 10^8/mL) was pre-warmed to 37 °C along with the compounds or DMSO (0.1%) for 2 min before being stimulated with collagen (1 µg/mL). The reactions were terminated 4 min after collagen stimulation by adding ice-cold lysis buffer (20 mM Tris·HCl (pH 7.6), 100 mM NaCl, 1% Triton X-100, 0.2% Sodium Deoxycholate, 10 mM MgCl2, 1 mM dithiothreitol, 1x protease inhibitor cocktail, and 1x phosphatase inhibitor cocktail). The supernatants were collected and subjected to the GST-Rhotekin pull-down assay. The total cell lysates were also blotted in parallel. GTP-bound RhoA was quantitatively detected with Western blotting using an anti-RhoA antibody. The relative amounts of RhoA were quantified with densitometry measurements and normalized to the untreated platelets.

[1] = washed human platelets, read-out: % Platelet Aggregation, Collagen (1 µg/mL)
[2] = washed human platelets, read-out: % Platelet Aggregation, Collagen (5 µg/mL)
[3] = collagen 1 µg/mL, washed human platelets, dose-response curves, read-out: IC50 (95% CI) of platelet aggregation
[4] = collagen-induced platelet aggregation, compounds without IC50 determination estimated from percent inhibition at 20 µM, read-out: IC50 (SAR table)

IC50 (washed human platelets; [3])	IC50 (washed human platelets; [4])	LARG binding to RhoA (RhoA-LARG interaction)	Compound	activity at 20 µM (washed human platelets; [1])	activity at 20 µM (washed human platelets; [2])	RhoA-GTP formation (RhoA)	activity in collagen-induced platelet aggregation (SAR statement) (washed human platelets)
–	–	–	CSCCNc1nc(SCCC(F)(F)F)nc2c1ncn2[C@@H]1O[C@H](COP(=O)(O)OP(=O)(O)C(Cl)(Cl)P(=O)(O)O)[C@@H](O)[C@H]1O [Cangrelor, reference compound]	27.7 ± 2.52%	63.3 ± 4.16%	–	–
–	–	–	CN(Nc1ccnc2cc(C(F)(F)F)ccc12)C(N)=S [UC177623]	84.3 ± 9%	90.7 ± 6.2%	–	–
–	–	–	O=C1OCCN1Nc1ccnc2ccccc12 [UC-177613]	84.3 ± 15.5%	95.2 ± 4.9%	–	–
–	–	–	O=C1OCCN1Nc1ccnc2cc(C(F)(F)F)ccc12 [UC-177614]	87.3 ± 9.6%	90 ± 3.1%	–	–
5.47 µM	–	–	S=C(NNc1ccnc2ccccc12)Nc1ccccc1 [UC-177615]	9.7 ± 6%	11.4 ± 9.9%	–	–
4.9 µM	–	–	O=C(NNc1ccnc2ccccc12)Nc1ccccc1 [UC-177616]	11.7 ± 2.3%	10.6 ± 3.6%	–	–
–	5.64 µM	–	O=C(NNc1ccnc2ccccc12)c1ccc(Cl)c(Cl)c1 [UC-177617]	13 ± 10.4%	26.8 ± 9%	–	–
–	> 20 µM	showed no effects	O=C(NNc1ccnc2ccccc12)c1cc2ccccc2[nH]1 [UC-177626]	86 ± 14.4%	87.6 ± 19.4%	–	–
2.22 µM	2.23 µM	–	O=C(NNc1ccnc2cc(C(F)(F)F)ccc12)c1cc2ccccc2[nH]1 [UC-177627]	17.7 ± 11.4%	19 ± 17.7%	–	–
–	2.84 µM	–	O=C(NNc1ccnc2c(C(F)(F)F)cccc12)c1cc2ccccc2[nH]1 [UC-177628]	8.7 ± 4.7%	12.3 ± 9%	inhibited RhoA-GTP formation	–
–	2.39 µM	–	O=C(NNc1ccnc2cc(Cl)ccc12)c1cc2ccccc2[nH]1 [UC-177629]	7.3 ± 5.9%	10.8 ± 3%	inhibited RhoA-GTP formation	–
–	> 20 µM	–	Cc1cc(NNC(=O)c2cc3ccccc3[nH]2)nc2ccccc12 [UC-177630]	73 ± 21.6%	85 ± 15.3%	–	lost all activity
–	> 20 µM	–	Cc1ccc(C(=O)NNc2ccnc3ccccc23)cc1 [UC-177631]	87.7 ± 13.1%	90.4 ± 3.7%	–	–
–	> 20 µM	–	Cc1ccc(C(=O)NNc2ccnc3cc(C(F)(F)F)ccc23)cc1 [UC-177632]	86.7 ± 11%	93.1 ± 12.8%	–	–
2.38 µM	2.34 µM	–	Cc1ccc(C(=O)NNc2ccnc3c(C(F)(F)F)cccc23)cc1 [UC-177633]	3.3 ± 3.2%	10.1 ± 8.3%	inhibited RhoA-GTP formation	–
–	4.59 µM	–	Cc1ccc(C(=O)NNc2ccnc3cc(Cl)ccc23)cc1 [UC-177634]	17 ± 2.6%	24.5 ± 3.9%	–	–
–	> 20 µM	–	Cc1ccc(C(=O)NNc2cc(C)c3ccccc3n2)cc1 [UC-177635]	79.1 ± 7%	90.1 ± 8.3%	–	–
–	–	–	O=C1OCCN1NC1CCOc2ccc(-n3cc[nH]c3=S)cc21 (stereo not drawn) [UC-177639]	80 ± 17.3%	90.4 ± 9.1%	–	–
–	3.55 µM	–	O=C(NNC1CCc2ccccc21)c1cc2ccccc2[nH]1 (stereo not drawn) [UC-178838]	7.3 ± 5.8%	13.7 ± 7.9%	–	nearly equipotent
–	–	–	Cc1[nH]c2ccccc2c1/C=N/NC(=O)c1cccnc1 [UC-390484]	81 ± 14%	88.1 ± 10%	–	–
–	–	–	COc1ccc2cc(/C=N/NC(=O)Cc3c[nH]c4ccccc34)ccc2c1 [UC-391695]	79 ± 8%	84.8 ± 12.1%	–	–
–	–	–	COc1cc(/C=N/NC(=O)C2COc3ccccc3O2)ccc1O (stereo not drawn) [UC-392453]	90.7 ± 8.5%	94.7 ± 11.2%	–	–
5.2 µM	–	–	O=S(=O)(Nc1cc(C(F)(F)F)ccc1Cl)c1cccc2cccnc12 [UC-406794]	12.7 ± 7.2%	25 ± 5.2%	–	–
–	–	–	Cc1ccc(C)c(OCC(=O)N/N=C/c2cn(Cc3ccccc3)c3ccccc23)c1C [UC-436352]	84.7 ± 15.5%	89 ± 2.5%	–	–
–	–	–	O=C(N/N=C/c1ccc(O)cc1)c1cc2ccccc2[nH]1 [UC-612333]	70 ± 5.6%	78.6 ± 14.9%	–	–
–	–	–	CN(Cc1ccccc1)C(=O)C(N)Cc1c[nH]c2ccccc12 (stereo not drawn) [UC-651009]	86 ± 1.7%	89.2 ± 10.6%	–	–
–	–	–	N[C@@H](Cc1c[nH]c2ccccc12)C(=O)Nc1ccc2oc(C(=O)O)cc2c1 [UC-830013]	93 ± 10.8%	91.3 ± 14.7%	–	–
–	–	–	S=C(NNc1ccnc2cc(Cl)ccc12)Nc1ccccc1Cl [UC-936377]	61.3 ± 4.5%	71.7 ± 5.3%	–	–
–	–	–	Cc1[nH]c2ccccc2c1CCNC(=O)c1ccc2nccnc2c1 [UC-984842]	91.3 ± 10.5%	95.9 ± 6.2%	–	–
